{"source": "ChEMBL document CHEMBL5214881", "about": "“Squaric acid analogues in medicinal chemistry” (Eur J Med Chem, 2021)", "key": {"[1]": {"tested_on": "Urinary bladder", "experiment": "Inhibition of KCL-induced contraction in rat urinary bladder", "assay_type": "functional, tissue-based", "conditions": "Urinary bladder smooth muscle"}, "[2]": {"biological_target": "T1, C-X-C chemokine receptor type 2 (Homo sapiens, UniProt P25025)", "T1 sequence (P25025 whole entry)": "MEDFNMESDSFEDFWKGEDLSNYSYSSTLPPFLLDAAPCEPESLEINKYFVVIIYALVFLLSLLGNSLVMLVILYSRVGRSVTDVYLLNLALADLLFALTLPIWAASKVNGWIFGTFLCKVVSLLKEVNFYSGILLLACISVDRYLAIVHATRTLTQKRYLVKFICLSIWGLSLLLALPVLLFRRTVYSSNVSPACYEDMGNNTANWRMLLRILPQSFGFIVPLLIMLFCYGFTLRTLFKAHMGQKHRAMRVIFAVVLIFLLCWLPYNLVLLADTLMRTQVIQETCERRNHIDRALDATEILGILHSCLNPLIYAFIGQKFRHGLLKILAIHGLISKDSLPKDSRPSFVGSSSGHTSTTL", "experiment": "Binding affinity to human CXCR2 assessed as dissociation constant incubated for 6 to 24 hrs by radioligand binding assay"}, "[3]": {"biological_target": "T2, C-X-C chemokine receptor type 1 (Homo sapiens, UniProt P25024)", "T2 sequence (P25024 whole entry)": "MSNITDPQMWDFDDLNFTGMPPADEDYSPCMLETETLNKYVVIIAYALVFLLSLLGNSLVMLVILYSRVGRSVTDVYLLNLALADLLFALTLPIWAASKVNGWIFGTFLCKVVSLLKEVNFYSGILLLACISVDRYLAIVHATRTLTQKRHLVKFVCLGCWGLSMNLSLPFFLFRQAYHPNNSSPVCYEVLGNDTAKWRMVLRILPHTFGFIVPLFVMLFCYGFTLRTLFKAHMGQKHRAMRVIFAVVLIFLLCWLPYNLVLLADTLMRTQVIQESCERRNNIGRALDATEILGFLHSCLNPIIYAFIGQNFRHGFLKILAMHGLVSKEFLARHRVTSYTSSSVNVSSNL", "experiment": "Binding affinity to human CXCR1 assessed as dissociation constant incubated for 6 to 24 hrs by radioligand binding assay"}, "[4]": {"biological_target": "T2, C-X-C chemokine receptor type 1", "experiment": "Inhibition of human CXCR1"}, "[5]": {"tested_on": "Leishmania infantum", "experiment": "Antileishmanial activity against promastigote stage of Leishmania infantum MCAN/ES/2001/UCM-10 incubated for 72 hrs by Neubauer haemocytometric chamber analysis", "assay_type": "functional, organism-based", "conditions": "MCAN/ES/2001/UCM-10, 72 h"}, "[6]": {"tested_on": "Leishmania braziliensis", "experiment": "Antileishmanial activity against promastigote stage of Leishmania braziliensis MHOM/BR/1975/M2904 incubated for 72 hrs by Neubauer haemocytometric chamber analysis", "assay_type": "functional, organism-based", "conditions": "MHOM/BR/1975/M2904, 72 h"}, "[7]": {"tested_on": "Leishmania donovani", "experiment": "Antileishmanial activity against promastigote stage of Leishmania donovani MHOM/PE/84/LC26 incubated for 72 hrs by Neubauer haemocytometric chamber analysis", "assay_type": "functional, organism-based", "conditions": "MHOM/PE/84/LC26, 72 h"}, "[8]": {"tested_on": "HeLa", "experiment": "Cytotoxicity against human HeLa cells assessed as reduction in cell viability incubated for 24 hrs by MTT assay", "assay_type": "functional, cell-based"}, "[9]": {"biological_target": "Cholinesterase (Homo sapiens, UniProt P06276)", "sequence (P06276 whole entry)": "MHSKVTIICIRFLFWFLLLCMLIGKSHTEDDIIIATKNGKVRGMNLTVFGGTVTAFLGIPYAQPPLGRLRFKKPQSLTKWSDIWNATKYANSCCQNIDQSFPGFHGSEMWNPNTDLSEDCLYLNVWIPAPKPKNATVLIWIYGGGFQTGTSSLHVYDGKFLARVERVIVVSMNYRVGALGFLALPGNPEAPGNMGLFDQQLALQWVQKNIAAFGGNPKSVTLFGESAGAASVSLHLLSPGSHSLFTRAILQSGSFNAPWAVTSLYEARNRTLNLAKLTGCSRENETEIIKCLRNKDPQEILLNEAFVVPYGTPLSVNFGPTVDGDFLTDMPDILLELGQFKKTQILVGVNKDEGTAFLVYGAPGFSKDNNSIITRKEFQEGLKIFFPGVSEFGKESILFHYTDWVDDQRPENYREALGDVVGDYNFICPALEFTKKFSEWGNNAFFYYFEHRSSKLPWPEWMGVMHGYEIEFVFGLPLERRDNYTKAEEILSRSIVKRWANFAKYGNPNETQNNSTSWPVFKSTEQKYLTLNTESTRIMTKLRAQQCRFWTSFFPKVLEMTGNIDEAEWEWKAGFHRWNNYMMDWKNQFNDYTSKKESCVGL", "experiment": "Inhibition of human BchE by spectrophotometric analysis"}, "[10]": {"biological_target": "Acetylcholinesterase (Homo sapiens, UniProt P22303)", "sequence (P22303 whole entry)": "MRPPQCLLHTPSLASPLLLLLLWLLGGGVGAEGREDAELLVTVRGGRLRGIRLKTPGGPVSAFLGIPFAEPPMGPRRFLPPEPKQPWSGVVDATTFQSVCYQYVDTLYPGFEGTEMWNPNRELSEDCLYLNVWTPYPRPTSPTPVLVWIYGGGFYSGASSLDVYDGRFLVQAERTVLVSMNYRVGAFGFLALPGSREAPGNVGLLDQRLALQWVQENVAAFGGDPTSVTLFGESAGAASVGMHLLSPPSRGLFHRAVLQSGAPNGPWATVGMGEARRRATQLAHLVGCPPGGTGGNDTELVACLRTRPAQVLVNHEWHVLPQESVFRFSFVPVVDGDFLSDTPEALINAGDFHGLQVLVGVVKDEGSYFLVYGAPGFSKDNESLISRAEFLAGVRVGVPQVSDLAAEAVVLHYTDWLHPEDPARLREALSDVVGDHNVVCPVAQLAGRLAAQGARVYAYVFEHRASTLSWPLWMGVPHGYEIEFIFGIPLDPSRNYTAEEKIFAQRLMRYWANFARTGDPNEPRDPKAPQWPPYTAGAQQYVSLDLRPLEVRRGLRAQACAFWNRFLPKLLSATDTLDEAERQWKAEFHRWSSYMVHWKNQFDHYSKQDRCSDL", "experiment": "Inhibition of human AchE by spectrophotometric analysis"}, "[11]": {"experiment": "Inhibition of Yersinia pestis PTP"}, "[12]": {"biological_target": "T3, Type-2 angiotensin II receptor (Homo sapiens, UniProt P50052)", "T3 sequence (P50052 whole entry)": "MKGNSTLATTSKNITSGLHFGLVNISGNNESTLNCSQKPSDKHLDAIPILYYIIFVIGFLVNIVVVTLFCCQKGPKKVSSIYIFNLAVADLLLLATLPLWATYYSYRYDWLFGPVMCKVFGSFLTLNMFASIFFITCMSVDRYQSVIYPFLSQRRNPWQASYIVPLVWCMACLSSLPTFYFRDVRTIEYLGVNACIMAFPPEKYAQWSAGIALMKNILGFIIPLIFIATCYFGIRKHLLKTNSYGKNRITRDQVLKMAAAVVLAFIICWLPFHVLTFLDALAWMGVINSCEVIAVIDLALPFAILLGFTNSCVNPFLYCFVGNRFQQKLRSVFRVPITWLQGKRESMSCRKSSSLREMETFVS", "experiment": "Inhibition of Angiotensin 2 binding to Angiotensin 2 receptor (unknown origin)"}, "[13]": {"tested_on": "Helicobacter pylori", "experiment": "Antibacterial activity against Helicobacter pylori assessed as bacterial growth inhibition", "assay_type": "functional"}, "[14]": {"biological_target": "T4, Interstitial collagenase (Homo sapiens, UniProt P03956)", "T4 sequence (P03956 whole entry)": "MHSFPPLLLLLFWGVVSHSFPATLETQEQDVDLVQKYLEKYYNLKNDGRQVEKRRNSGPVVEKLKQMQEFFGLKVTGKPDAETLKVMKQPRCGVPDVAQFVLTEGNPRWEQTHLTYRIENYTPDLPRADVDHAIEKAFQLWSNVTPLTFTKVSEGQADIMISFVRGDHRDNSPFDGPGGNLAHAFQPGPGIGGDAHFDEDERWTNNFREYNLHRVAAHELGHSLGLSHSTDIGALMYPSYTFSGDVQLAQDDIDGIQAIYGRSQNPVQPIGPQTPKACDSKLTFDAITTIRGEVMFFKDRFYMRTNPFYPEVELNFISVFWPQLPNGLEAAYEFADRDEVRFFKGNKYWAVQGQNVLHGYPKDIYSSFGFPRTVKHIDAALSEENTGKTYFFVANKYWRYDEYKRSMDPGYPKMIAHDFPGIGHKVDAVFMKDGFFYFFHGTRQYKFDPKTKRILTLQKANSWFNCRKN", "experiment": "Inhibition of MMP-1 (unknown origin) using DnpPro-Cha-Gly-Cys(Me)-His-Ala-Lys(Nma)-NH2 as substrate by fluorescence spectroscopy"}, "[15]": {"experiment": "Dissociation constant, pKa of the compound", "assay_type": "physicochemical"}, "[16]": {"experiment": "Toxicity in Swiss albino mouse assessed as lethality pretreated for 30 mins followed by NMDA stimulation and measured after 30 mins", "conditions": "in vivo, 1 h, time 60 min"}, "[17]": {"biological_target": "Glutamate [NMDA] receptor", "experiment": "Binding affinity to NMDA receptor (unknown origin)", "assay_type": "protein-complex assay, Homo sapiens"}, "[18]": {"biological_target": "Glutamate [NMDA] receptor", "experiment": "Binding affinity to TCP-stimulated NMDA (unknown origin)", "assay_type": "protein-complex assay, Homo sapiens"}}, "data": [{"compound": "CCc1cc(C#N)ccc1Nc1c(N[C@H](C)C(C)(C)C)c(=O)c1=O", "values": [{"measurement": "IC50", "setting": "[1]", "value": 90, "unit": "nM"}]}, {"compound": "CC[C@@H](Nc1c(Nc2cccc(C(=O)N(C)C)c2O)c(=O)c1=O)c1ccco1", "values": [{"measurement": "Kd", "setting": "[2]", "value": 0.049, "unit": "nM"}, {"measurement": "Kd", "setting": "[3]", "value": 3.9, "unit": "nM"}]}, {"compound": "CCC(CC)Nc1c(Nc2cccc(C(=O)N(C)C)c2O)c(=O)c1=O", "values": [{"measurement": "IC50", "setting": "[4]", "value": 15, "unit": "nM"}]}, {"compound": "O=c1c(Nc2ccccc2)c(Nc2ccc([N+](=O)[O-])cc2O)c1=O", "values": [{"measurement": "IC50", "setting": "[4]", "value": 36, "unit": "nM"}]}, {"compound": "CC[C@@H](Nc1c(Nc2cccc(C(=O)N(C)C)c2O)c(=O)c1=O)c1ccccc1", "values": [{"measurement": "IC50", "setting": "[4]", "value": 6.8, "unit": "nM"}]}, {"compound": "CCCCNc1c(N(C)CCCN(C)C)c(=O)c1=O", "values": [{"measurement": "IC50", "setting": "[5]", "value": 18000, "unit": "nM"}, {"measurement": "IC50", "setting": "[6]", "value": 17300, "unit": "nM"}]}, {"compound": "O=c1c(NCc2ccccc2)c(NC2CCN(Cc3ccccc3)CC2)c1=O", "values": [{"measurement": "IC50", "setting": "[7]", "value": 17900, "unit": "nM"}]}, {"compound": "COc1c(Nc2ccc3ccccc3c2-c2c(O)ccc3ccccc23)c(=O)c1=O", "values": [{"measurement": "IC50", "setting": "[8]", "value": 46700, "unit": "nM"}]}, {"compound": "O=c1c(NCCCCCCCc2c3c(nc4ccccc24)CCCC3)c(NCCCCCCCc2c3c(nc4ccccc24)CCCC3)c1=O", "values": [{"measurement": "IC50", "setting": "[9]", "value": 21, "unit": "nM"}, {"measurement": "IC50", "setting": "[10]", "value": 13, "unit": "nM"}]}, {"compound": "COc1c(Nc2ccc3c4c(cccc24)-c2ccccc2-3)c(=O)c1=O", "values": [{"measurement": "IC50", "setting": "[8]", "value": 880, "unit": "nM"}]}, {"compound": "O=c1c(O)c(-c2ccc([N+](=O)[O-])cc2)c1=O", "values": [{"measurement": "IC50", "setting": "[11]", "value": 120000, "unit": "nM"}]}, {"compound": "O=c1c(O)c(-c2ccccc2-c2ccc(CNc3cc(C(F)(F)F)cc4c3CCCC4)cc2)c1=O", "values": [{"measurement": "IC50", "setting": "[12]", "value": 25, "unit": "nM"}]}, {"compound": "O=c1c(NC/C=C\\COc2cc(CN3CCCCC3)cs2)c(NCCF)c1=O", "values": [{"measurement": "MIC", "setting": "[13]", "value": 1.56, "unit": "µg/mL"}]}, {"compound": "CC[C@H](C)[C@H](Nc1c(N(C)O)c(=S)c1=O)C(=O)N[C@@H](Cc1ccccc1)C(=O)NC", "values": [{"measurement": "IC50", "setting": "[14]", "value": 15000, "unit": "nM"}]}, {"compound": "O=c1c(NCCCCc2c3c(nc4cc(Cl)ccc24)CCCC3)c(NCCCCc2c3c(nc4ccc(Cl)cc24)CCCC3)c1=O", "values": [{"measurement": "IC50", "setting": "[9]", "value": 110, "unit": "nM"}, {"measurement": "IC50", "setting": "[10]", "value": 2, "unit": "nM"}]}, {"compound": "Nc1nc2c(ncn2[C@@H]2O[C@@H]3CNc4c(c(=O)c4=O)N[C@H]3[C@H]2O)c(=O)[nH]1", "values": [{"measurement": "pKa", "setting": "[15]", "value": 2.3}]}, {"compound": "CCCCCCCCCCCCCCC(C)Nc1c(NCC[N+](C)(C)C)c(=O)c1=O", "note": "(configuration not stated)", "values": [{"measurement": "IC50", "setting": "[5]", "value": 16300, "unit": "nM"}]}, {"compound": "O=c1c(O)c(-c2ccc3ccccc3c2)c1=O", "values": [{"measurement": "IC50", "setting": "[11]", "value": 40000, "unit": "nM"}]}, {"compound": "Nc1c(NCCP(=O)(O)O)c(=O)c1=O", "values": [{"measurement": "ED50", "setting": "[16]", "value": 29, "unit": "mg/kg"}, {"measurement": "IC50", "setting": "[17]", "value": 470, "unit": "nM"}]}, {"compound": "O=c1c2c(c1=O)N(CCP(=O)(O)O)CCCN2", "note": "[PERZINFOTEL]", "values": [{"measurement": "ED50", "setting": "[16]", "value": 2.1, "unit": "mg/kg"}, {"measurement": "IC50", "setting": "[18]", "value": 7600, "unit": "nM"}, {"measurement": "IC50", "setting": "[17]", "value": 30, "unit": "nM"}]}]}
